In patent US5679701A (priority 1996, dated 1997):
Where two headings read alike, the source gives them in different places.

What was measured:
[1] = target: T1, ryanodine receptor (skeletal sarcoplasmic reticulum membrane vesicles) (Oryctolagus cuniculus, UniProt P11716); assay: biochemical; assay type: binding; conditions: for Kd: read-out: KD
T1 construct: skeletal sarcoplasmic reticulum membrane vesicles; from tissue; host or cells: skeletal muscle sarcoplasmic reticulum membrane vesicles

[2] = tested on: SR Ca^++ release channel/ryanodine receptor (cardiac and skeletal muscle vesicles); assay type: biochemical
[3] = target: T2, Sarcoplasmic Reticular Ca^++ -Release Channel (ryanodine receptor) (Oryctolagus cuniculus, UniProt P11716); assay: biochemical; assay type: binding
T2 construct: skeletal sarcoplasmic reticulum membrane vesicles; from tissue; host or cells: skeletal muscle sarcoplasmic reticulum membrane vesicles

[4] = target: SR Ca^2+ release channel (junctional SR vesicles from rabbit skeletal muscle) (Oryctolagus cuniculus, UniProt P11716); assay: biochemical; assay type: biochemical
Method: Briefly, junctional SR vesicles from rabbit skeletal muscle were passively loaded with. ^45 Ca^2+ in the presence and absence of the esters. Ca^2+ -efflux was then initiated by diluting the vesicles 100-fold into a low Ca^2+ -concentration. ^45 Ca^2+ remaining in the vesicles was determined after a 3 sec. efflux period by termination and filtration of the vesicles followed by liquid scintillation counting.

[5] = Table I, mean ± standard deviation of replicates
[6] = Table II, more highly purified standards, read-out: IC50 (nM) ± S.D.

Sequence of SR Ca^2+ release channel (junctional SR vesicles from rabbit skeletal muscle) (P11716 whole entry): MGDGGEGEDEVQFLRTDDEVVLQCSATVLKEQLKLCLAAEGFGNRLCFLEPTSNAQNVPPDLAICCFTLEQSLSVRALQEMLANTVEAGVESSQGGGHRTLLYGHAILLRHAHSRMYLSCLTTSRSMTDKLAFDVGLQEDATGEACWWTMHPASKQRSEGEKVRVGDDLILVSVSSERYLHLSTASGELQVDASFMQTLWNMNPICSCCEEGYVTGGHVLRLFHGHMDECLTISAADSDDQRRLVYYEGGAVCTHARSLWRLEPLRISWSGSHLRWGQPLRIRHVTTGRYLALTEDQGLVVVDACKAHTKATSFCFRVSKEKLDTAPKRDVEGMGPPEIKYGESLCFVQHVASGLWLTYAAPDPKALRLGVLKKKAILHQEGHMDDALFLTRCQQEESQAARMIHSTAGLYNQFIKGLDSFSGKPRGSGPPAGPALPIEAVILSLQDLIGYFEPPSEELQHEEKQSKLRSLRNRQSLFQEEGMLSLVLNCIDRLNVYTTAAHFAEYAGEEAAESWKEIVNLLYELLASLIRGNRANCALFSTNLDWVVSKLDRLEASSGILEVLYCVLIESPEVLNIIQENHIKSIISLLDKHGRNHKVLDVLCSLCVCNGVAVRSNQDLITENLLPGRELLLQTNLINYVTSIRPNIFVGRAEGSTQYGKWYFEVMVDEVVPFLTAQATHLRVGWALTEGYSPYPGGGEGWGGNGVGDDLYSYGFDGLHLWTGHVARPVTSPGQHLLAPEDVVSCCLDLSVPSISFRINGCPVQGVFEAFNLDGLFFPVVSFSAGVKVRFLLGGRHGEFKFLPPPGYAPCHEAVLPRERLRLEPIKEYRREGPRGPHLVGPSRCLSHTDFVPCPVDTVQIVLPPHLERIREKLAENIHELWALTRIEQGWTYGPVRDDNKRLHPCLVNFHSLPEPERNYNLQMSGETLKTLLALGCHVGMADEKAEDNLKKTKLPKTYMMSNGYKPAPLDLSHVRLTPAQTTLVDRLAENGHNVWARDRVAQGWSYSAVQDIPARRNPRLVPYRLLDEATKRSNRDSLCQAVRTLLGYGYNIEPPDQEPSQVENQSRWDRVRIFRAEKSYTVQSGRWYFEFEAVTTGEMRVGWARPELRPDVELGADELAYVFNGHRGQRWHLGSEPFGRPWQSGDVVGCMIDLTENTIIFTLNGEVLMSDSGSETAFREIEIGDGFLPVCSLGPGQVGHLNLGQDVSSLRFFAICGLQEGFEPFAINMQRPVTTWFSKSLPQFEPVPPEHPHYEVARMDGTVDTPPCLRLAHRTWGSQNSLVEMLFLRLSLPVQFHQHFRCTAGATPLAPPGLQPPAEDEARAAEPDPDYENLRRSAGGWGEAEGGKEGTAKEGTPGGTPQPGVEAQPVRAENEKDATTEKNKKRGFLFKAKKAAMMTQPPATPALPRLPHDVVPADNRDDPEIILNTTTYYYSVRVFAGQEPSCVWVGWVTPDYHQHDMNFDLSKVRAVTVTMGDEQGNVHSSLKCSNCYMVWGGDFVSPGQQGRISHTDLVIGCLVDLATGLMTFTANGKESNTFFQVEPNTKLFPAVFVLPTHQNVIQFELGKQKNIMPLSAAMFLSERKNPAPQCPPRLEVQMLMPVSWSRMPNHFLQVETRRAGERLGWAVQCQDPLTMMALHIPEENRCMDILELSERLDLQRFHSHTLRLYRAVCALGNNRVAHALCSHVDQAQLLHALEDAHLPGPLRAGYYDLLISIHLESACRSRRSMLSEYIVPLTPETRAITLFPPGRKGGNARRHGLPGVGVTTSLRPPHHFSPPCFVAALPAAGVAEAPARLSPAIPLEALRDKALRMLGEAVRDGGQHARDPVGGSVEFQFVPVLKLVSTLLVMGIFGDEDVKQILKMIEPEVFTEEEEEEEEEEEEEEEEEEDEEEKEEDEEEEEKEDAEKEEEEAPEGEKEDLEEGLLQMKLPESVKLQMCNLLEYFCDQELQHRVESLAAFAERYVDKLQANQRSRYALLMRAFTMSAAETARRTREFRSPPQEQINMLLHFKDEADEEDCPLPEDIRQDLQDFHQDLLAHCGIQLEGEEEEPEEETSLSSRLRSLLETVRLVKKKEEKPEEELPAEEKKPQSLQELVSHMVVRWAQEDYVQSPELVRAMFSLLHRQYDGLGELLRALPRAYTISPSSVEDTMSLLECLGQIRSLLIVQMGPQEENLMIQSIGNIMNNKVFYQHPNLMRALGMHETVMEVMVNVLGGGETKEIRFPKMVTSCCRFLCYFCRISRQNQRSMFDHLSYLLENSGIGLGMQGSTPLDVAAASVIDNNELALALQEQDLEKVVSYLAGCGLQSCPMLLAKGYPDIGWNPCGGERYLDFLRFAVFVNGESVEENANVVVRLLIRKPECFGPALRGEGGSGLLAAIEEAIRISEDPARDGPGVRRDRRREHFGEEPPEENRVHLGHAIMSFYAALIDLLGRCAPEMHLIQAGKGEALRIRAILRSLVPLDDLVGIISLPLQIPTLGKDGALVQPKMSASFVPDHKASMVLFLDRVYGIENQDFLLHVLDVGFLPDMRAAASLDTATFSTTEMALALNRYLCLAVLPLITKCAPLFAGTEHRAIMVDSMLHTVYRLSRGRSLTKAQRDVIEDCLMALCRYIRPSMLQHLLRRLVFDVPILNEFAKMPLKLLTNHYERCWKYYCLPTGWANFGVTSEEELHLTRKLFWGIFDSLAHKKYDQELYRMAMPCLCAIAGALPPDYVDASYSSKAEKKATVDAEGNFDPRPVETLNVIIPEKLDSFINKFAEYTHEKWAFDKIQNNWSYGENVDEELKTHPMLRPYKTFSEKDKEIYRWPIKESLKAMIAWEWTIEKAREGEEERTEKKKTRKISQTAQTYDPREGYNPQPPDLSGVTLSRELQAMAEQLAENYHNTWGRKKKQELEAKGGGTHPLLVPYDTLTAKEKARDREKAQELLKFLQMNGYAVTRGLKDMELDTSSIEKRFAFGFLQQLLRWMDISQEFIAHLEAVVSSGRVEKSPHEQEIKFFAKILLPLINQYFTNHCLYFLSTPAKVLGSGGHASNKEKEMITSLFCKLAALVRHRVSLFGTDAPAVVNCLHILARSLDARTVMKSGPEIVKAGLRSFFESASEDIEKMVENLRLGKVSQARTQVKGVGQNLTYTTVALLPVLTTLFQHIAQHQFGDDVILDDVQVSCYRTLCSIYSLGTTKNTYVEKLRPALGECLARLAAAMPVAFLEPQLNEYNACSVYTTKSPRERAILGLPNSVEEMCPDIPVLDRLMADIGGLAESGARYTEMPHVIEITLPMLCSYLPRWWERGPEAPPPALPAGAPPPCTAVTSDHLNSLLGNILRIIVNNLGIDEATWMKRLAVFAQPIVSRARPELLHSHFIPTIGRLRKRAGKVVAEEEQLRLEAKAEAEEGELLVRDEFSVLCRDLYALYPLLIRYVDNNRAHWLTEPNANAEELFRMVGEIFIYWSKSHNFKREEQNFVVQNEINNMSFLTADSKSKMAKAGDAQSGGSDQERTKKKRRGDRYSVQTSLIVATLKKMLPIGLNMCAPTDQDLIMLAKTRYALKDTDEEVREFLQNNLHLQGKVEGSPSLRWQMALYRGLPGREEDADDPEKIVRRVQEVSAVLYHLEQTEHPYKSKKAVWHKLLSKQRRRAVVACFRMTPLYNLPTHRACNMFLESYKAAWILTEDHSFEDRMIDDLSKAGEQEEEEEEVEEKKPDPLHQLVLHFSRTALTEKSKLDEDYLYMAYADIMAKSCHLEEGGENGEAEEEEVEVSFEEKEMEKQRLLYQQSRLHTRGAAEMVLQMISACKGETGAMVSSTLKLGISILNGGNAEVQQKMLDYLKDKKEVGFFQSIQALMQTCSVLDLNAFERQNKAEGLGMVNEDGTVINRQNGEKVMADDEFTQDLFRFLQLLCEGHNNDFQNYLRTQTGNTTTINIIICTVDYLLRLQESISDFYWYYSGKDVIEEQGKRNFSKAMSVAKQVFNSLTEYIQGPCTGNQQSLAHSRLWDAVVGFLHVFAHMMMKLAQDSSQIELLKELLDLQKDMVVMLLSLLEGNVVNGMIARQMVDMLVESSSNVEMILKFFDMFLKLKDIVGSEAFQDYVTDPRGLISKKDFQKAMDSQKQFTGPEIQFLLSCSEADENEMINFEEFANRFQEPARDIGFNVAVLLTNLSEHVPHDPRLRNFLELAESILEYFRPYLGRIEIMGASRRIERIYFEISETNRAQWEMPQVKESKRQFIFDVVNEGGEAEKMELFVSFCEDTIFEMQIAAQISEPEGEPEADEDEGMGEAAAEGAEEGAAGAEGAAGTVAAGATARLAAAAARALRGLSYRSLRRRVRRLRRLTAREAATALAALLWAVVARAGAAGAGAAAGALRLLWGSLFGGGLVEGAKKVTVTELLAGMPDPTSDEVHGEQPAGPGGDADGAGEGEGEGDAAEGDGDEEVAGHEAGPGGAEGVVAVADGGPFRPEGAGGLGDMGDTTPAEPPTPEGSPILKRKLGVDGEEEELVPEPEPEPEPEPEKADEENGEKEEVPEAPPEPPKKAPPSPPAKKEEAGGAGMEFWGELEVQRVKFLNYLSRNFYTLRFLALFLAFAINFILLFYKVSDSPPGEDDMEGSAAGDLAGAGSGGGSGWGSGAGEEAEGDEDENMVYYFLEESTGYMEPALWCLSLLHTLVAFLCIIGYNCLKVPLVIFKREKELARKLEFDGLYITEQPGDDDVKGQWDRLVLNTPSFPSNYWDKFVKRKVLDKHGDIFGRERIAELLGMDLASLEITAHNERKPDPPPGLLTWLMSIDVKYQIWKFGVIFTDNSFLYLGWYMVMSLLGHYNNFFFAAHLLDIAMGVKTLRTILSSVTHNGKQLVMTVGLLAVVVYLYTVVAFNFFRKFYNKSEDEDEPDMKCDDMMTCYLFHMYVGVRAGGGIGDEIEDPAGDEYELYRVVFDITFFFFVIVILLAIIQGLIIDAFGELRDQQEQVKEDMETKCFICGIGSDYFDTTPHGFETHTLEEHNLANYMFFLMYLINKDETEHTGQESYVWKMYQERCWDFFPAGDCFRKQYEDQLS
T1 sequence (P11716 whole entry): as above
T2 sequence (P11716 whole entry): as above

CC1=CC(C)=[N+]2C1=Cc1ccc(CCC(=O)NCCC(=O)OC3C(C)CCC4(O)C5(C)CC6(O)OC34C3(O)C5(O)C(OC(=O)c4ccc[nH]4)C(O)(C(C)C)C63C)n1[B-]2(F)F (stereo not drawn) [XV, O10eq -N-BODIPY(FL C3)-β-Alanyl-Ryanodine]
IC50 ([1]; Table I, displacement of 6.7 nM [3H]ryanodine, mean ± standard deviation of replicates, read-out: IC50): 41.2 ± 2.7 nM
Kd [1, 5]: 15.8 ± 1 nM
IC50 ([1]; first embodiment, read-out: IC50): 41.2 ± 2.7 nM
Kd ([1]; first embodiment): 15.8 ± 1 nM

C=C1CCC2(O)C3(C)CC4(O)OC2(C1OC(=O)CCC(=O)O)C1(O)C3(O)C(OC(=O)c2ccc[nH]2)C(O)(C(C)C)C41C (centres unmarked) [XVII, Dehydroryanodine-O10eg -Hemi-Succinate]
IC50 ([1]; IC50 (nM)): > 1000 nM

C=C1CCC2(O)C3(C)CC4(O)OC2(C1OC(=O)CCC(=O)NC)C1(O)C3(O)C(OC(=O)c2ccc[nH]2)C(O)(C(C)C)C41C (centres unmarked) [XVIII, N-Methyl-Dehydroryanodine-Succinamidate]
IC50 ([1]; IC50 (nM)): 49.4 ± 10.6 nM
Kd [1, 5]: 19.9 ± 5.8 nM
closing of the SR Ca^++ release channel (in words) [2]: neither XVII(NMDS) nor CBZ-glycyl-ryanodine (I) exhibits significant ability to close the channel
opening of the SR Ca^++ release channel (in words) [2]: only slightly less active than ryanodine for opening the channel

CC1CCC2(O)C3(C)CC4(O)OC2(C1OC(=O)CCNC(=NC(=O)OCc1ccccc1)NC(=O)OCc1ccccc1)C1(O)C3(O)C(OC(=O)c2ccc[nH]2)C(O)(C(C)C)C41C (stereo not drawn) [XX, O10eq -β-N,N'-bis-Cbz-guanidino-propionyl-ryanodine]
IC50 [3, 6]: 43.6 nM
lessened affinity compared with ryanodine ([3]; vs ryanodine): 7-20 fold

CC1CCC2(O)C3(C)CC4(O)OC2(C1OC(=O)CCNC(=N)N)C1(O)C3(O)C(OC(=O)c2ccc[nH]2)C(O)(C(C)C)C41C (stereo not drawn) [XXI, O10eq -β-Guanidinopropionyl-Ryanodine]
opening (activation) of the SR CRC (in words) [4]: appears to be purely an activator of the SR CRC
closing (deactivation) of the SR CRC (in words) ([4]; higher concentrations, up to 1 mM for V-II, XXI preliminary): entirely lack the ability of ryanodine to close the SR CRC
pharmacological profile (in words) ([4]; vs biphasic profile of ryanodine): altered--unidirectional--pharmacological profile, differing from the biphasic profile of ryanodine
IC50 [3, 6]: 1.1 ± 0.1 nM
relative binding affinity compared with ryanodine (in words) ([3]; vs ryanodine): about six times greater than that of ryanodine
relative binding affinity compared with ryanodine (in words) ([3]; vs ryanodine, listed as O10eq -β-guanidinopropyl-ryanodine): high binding affinity

CC1CCC2(O)C3(C)CC4(O)OC2(C1OC(=O)CN)C1(O)C3(O)C(OC(=O)c2ccc[nH]2)C(O)(C(C)C)C41C (centres unmarked) [XXII, O10eq -glycyl-ryanodine]
IC50 [3, 6]: 1.8 ± 0.4 nM

CC1CCC2(O)C3(C)CC4(O)OC2(C1OC(=O)CNC(=NC(=O)OCc1ccccc1)NC(=O)OCc1ccccc1)C1(O)C3(O)C(OC(=O)c2ccc[nH]2)C(O)(C(C)C)C41C (centres unmarked) [XXIII, O10eq -N,N'-bis-(Cbz)-guanidinoacetyl-ryanodine]
lessened affinity compared with ryanodine [3]: 7-20 fold
IC50 ([3]; IC50 (nM) ± S.D.): 136 nM

CC1CCC2(O)C3(OC4(O)C[C@]2(C)C2(O)[C@H](OC(=O)c5ccc[nH]5)C(O)(C(C)C)C4(C)C32O)[C@@H]1OC(=O)CN=C(N)N (some centres unmarked) [XXIV, O10eq -Guanidinoacetyl-Ryanodine]
IC50 [3, 6]: 1.8 ± 0.2 nM
IC50 ([3]; second embodiment, read-out: IC50): 1.8 nM

C=C1CCC2(O)C3(C)CC4(O)OC2(C1OC(=O)CCNC(=O)OCc1ccccc1)C1(O)C3(O)C(OC(=O)c2ccc[nH]2)C(O)(C(C)C)C41C (stereo not drawn) [XXV, O10eq -CBZ-β-Alanyl-Dehydroryanodine]
IC50 [3, 6]: 4.43 nM

C=C1CCC2(O)C3(C)CC4(O)OC2(C1OC(=O)CCN)C1(O)C3(O)C(OC(=O)c2ccc[nH]2)C(O)(C(C)C)C41C (stereo not drawn) [XXVI, O10eq -β-Alanyl-Dehydroryanodine]
IC50 [3, 6]: 3.36 nM

CC1CCC2(O)C3(C)CC4(O)OC2(C1OC(=O)CCNC(=O)CCNC(=O)c1cc(I)c(N=[N+]=[N-])cc1O)C1(O)C3(O)C(OC(=O)c2ccc[nH]2)C(O)(C(C)C)C41C (stereo not drawn) [XXXI, O10eq N-(4-azido-5-^125 Iodosalicyloyl)-β-alanyl-β-alanyl ryanodine]
deactivation of the CRC in calcium flux experiments (in words) ([4]; concentrations greater than 1 mM, non-radioactive compound): does not deactivate the CRC
IC50 ([1]; non-radioactive compound, read-out: IC50): 25.1 ± 2.5 nM
